From patent US20260092039A1, “DUAL INHIBITORS FOR THE TREATMENT OF ALZHEIMER'S DISEASE” (UNIVERSITAT DE BARCELONA, priority 2023, published 2026)

What was measured:
[1] = Parallel artificial membrane permeation assay for blood-brain barrier (PAMPA-BBB); assay type: in vitro ADME, porcine; details: for Papp: pig, PBS:EtOH (70:30), read-out: Blood-brain barrier permeability Pe; for CNS prediction: predictive penetration in the CNS from Pe
Protocol: A parallel artificial membrane permeation assay for blood-brain barrier (PAMPA-BBB) was used to evaluate the brain penetration of compounds of formula I, following the method described by L. Di et al., “High throughput artificial membrane permeability assay for blood-brain barrier”, European Journal of Medicinal Chemistry 2003, vol. 38. pp. 223-232. The in vitro permeability (Pe) of the test compounds through a lipid extract of porcine brain membrane was determined. Assayed compounds were tested using a mixture of PBS:EtOH (70:30). Assay validation was made by comparing the experimental and reported permeability values of a set of fourteen commercial drugs and a lineal correlation between experimental and reported permeability values of the fourteen commercial drugs was obtained (y=1.678 x−1.447; R^2=0.9313). From this equation and taking into account the limits established by Di et al. for BBB permeation, the ranges of permeability were established, as follows. Compounds of high BBB permeation (CNS+): Pe (10^−6 cm s^−1)>5.26; compounds of low BBB permeation (CNS−): Pe (10^−6 cm s^−1)<1.91; and compounds of uncertain BBB permeation (CNS+/−): 5.26>Pe (10^−6 cm s^−1)>1.91. The permeability results are averages of three different experiments in triplicate and a predictive penetration in the CNS is also given (Table 5).

[2] = molecular target: T1, human recombinant glutaminyl cyclase (hQC) (Homo sapiens, UniProt Q16769); experiment: In vitro determination of human QC inhibitory activity (SensoLyte Green Glutaminyl Cyclase Activity Assay Kit); assay type: biochemical
T1 construct: purchased Eurogentec AS-72230
T1 sequence (Q16769 29-361): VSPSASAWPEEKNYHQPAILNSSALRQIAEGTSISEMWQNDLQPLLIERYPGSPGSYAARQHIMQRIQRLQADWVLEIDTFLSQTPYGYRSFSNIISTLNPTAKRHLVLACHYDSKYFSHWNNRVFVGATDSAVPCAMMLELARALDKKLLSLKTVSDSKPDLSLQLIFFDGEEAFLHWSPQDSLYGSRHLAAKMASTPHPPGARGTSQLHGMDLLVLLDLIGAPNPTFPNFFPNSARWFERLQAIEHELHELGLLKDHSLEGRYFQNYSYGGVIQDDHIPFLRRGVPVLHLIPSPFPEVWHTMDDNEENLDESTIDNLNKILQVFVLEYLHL
Protocol: Basic statistical analysis was performed.

[3] = molecular target: T2, recombinant human sEH (hsEH) (Homo sapiens, UniProt P34913); experiment: In vitro determination of sEH inhibitory activity (fluorescent PHOME assay)
T2 sequence (P34913 1-555): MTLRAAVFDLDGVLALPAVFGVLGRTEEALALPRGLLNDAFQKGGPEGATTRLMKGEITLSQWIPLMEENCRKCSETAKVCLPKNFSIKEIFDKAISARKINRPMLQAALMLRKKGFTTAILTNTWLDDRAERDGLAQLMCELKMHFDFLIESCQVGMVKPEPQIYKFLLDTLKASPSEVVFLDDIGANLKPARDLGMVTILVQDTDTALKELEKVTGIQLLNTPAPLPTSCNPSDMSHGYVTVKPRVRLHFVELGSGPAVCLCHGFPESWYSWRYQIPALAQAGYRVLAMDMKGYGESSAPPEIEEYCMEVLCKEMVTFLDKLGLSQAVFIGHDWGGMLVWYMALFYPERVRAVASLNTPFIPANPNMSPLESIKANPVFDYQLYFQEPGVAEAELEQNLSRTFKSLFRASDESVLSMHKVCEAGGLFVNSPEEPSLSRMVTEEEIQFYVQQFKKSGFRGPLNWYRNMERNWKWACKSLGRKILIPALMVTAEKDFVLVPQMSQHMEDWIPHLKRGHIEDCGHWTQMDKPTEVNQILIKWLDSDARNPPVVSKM
Protocol: Control compound (TPPU): N-[1-(1-Oxopropyl)-4-piperidinyl]-N′-[4-(trifluoromethoxy)phenyl]urea.
Five μL of DMSO were added to background and positive control wells, and then 5 μL of inhibitor solution were added in the inhibitor wells. Five μL of the solution of hsEH were added to the positive control and inhibitor wells and the mixture was stirred. A 1/21 dilution of the solution of PHOME with assay buffer was prepared according to the final volume required, and then 105 μL of each well were added. The plate was carefully shaken for 10 seconds and was incubated for 5 minutes at room temperature. […] The intensity of fluorescence was used to analyze and calculate the IC50 values. Results were obtained by regression analysis from at least three data points in a linear region of the curve. IC50 values are average of minimum three independent replicates.

Cc1cncn1CCCNC(=O)NCCC1C2CC3CC(C2)CC1C3 (stereo not shown) [Ip, 1-[2-(adamantan-2-yl)ethyl]-3-[3-(5-methyl-1H-imidazol-1-yl)propyl]urea]
Papp [1]: 13 ×10⁻⁶ cm/s | CNS prediction [1]: CNS+ (Compounds of high BBB permeation (CNS+): Pe (10^−6 cm s^−1)>5.26) | IC50 [2]: 1450 nM | IC50 [3]: 95 nM

Cc1cncn1CCCNC(=O)NC12CC3CC(CC1C3)C2 [It, 1-(noradamantan-3-yl)-3-[3-(5-methyl-1H-imidazol-1-yl)propyl]urea]
Papp [1]: 5.8 ×10⁻⁶ cm/s | CNS prediction [1]: CNS+ (Compounds of high BBB permeation (CNS+): Pe (10^−6 cm s^−1)>5.26) | IC50 [2]: 460 nM | IC50 [3]: 185 nM

Cc1cncn1CCCNC(=O)NC12CC3(C)C4(C)CC1CC4(C)C3(C)C2 [Iv, 1-[3-(5-methyl-1H-imidazol-1-yl)propyl]-3-(3,4,8,9-tetramethyltetracyclo[4.4.0.0^3,9.0^4,8]decan-1-yl)urea]
Papp [1]: 7.5 ×10⁻⁶ cm/s | CNS prediction [1]: CNS+ (Compounds of high BBB permeation (CNS+): Pe (10^−6 cm s^−1)>5.26) | IC50 [2]: 540 nM | IC50 [3]: 103 nM

Cc1cncn1CCCNC(=O)N(C)C1C2CC3CC(C2)CC1C3 (stereo not shown) [Iy, 1-(adamantan-2-yl)-1-methyl-3-[3-(5-methyl-1H-imidazol-1-yl)propyl]urea]
Papp [1]: 9.8 ×10⁻⁶ cm/s | CNS prediction [1]: CNS+ (Compounds of high BBB permeation (CNS+): Pe (10^−6 cm s^−1)>5.26) | IC50 [2]: 205 nM | IC50 [3]: 23 nM
